“Also recorded” adds a separate entry of the source.
Legend:
[1] = target: T1, TAP (core-TAP1mVenus/core-TAP2mCerulean containing crude membranes from Pichia pastoris) (Homo sapiens, UniProt Q03518+Q03519); assay: Filter-based peptide competition assay; assay type: binding; conditions: 100 μM inhibitor; illumination at 365 nm
T1 sequence (Q03518 167-748 limits assumed): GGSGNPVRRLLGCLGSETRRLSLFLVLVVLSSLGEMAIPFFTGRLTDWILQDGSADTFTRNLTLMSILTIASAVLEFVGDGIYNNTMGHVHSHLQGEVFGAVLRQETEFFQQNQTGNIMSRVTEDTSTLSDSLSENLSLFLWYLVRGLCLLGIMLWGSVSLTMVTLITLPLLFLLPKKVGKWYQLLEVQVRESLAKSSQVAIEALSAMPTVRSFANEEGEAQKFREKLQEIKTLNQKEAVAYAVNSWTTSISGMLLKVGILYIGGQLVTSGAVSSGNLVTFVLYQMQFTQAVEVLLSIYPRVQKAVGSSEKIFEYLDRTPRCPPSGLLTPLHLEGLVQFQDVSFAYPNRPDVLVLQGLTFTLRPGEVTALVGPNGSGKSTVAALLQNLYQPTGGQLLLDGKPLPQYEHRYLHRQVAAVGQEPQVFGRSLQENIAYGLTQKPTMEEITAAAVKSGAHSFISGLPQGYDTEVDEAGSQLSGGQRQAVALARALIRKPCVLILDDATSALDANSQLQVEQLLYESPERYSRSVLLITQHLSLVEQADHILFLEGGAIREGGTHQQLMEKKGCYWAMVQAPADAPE
T1 sequence (Q03519 125-686 limits assumed): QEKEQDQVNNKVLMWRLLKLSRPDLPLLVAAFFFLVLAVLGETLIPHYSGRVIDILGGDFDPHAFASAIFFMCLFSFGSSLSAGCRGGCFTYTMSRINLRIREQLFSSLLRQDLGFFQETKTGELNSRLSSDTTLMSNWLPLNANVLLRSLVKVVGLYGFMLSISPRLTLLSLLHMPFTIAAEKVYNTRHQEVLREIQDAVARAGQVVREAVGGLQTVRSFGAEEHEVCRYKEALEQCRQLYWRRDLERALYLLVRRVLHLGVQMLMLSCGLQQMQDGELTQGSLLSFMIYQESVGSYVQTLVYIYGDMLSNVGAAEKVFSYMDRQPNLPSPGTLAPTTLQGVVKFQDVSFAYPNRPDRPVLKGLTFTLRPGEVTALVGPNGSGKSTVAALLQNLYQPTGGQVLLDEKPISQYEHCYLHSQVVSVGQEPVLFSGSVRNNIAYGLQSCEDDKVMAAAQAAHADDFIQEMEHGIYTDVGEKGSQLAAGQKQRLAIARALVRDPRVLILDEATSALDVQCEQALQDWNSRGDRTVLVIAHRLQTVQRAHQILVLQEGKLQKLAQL

[2] = target: TAP (Homo sapiens, UniProt Q03518+Q03519); assay: TAP-dependent peptide transport of NST-F in Raji microsomes; assay type: biochemical; conditions: read-out: inhibition of TAP-dependent peptide translocation before illumination
Chain of TAP (Q03518 whole entry): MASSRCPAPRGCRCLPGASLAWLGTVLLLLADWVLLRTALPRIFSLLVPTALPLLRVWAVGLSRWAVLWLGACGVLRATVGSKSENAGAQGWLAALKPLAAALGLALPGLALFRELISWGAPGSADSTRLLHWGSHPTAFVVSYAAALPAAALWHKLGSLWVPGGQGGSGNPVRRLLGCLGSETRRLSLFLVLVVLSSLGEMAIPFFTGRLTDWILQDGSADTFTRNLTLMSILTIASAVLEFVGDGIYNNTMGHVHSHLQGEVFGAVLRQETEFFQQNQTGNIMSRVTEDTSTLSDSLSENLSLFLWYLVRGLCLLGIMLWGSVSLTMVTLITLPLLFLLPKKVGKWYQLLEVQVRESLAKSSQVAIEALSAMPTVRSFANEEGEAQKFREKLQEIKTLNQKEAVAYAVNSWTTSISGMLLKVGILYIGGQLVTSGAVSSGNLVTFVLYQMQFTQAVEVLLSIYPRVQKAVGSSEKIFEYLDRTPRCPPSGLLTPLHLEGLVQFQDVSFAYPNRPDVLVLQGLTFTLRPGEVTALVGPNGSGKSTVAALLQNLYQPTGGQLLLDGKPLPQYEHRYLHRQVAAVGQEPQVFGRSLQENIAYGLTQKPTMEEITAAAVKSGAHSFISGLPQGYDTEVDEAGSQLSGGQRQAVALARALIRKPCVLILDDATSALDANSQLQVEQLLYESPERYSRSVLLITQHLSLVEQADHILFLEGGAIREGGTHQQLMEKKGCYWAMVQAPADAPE
Chain of TAP (Q03519 whole entry): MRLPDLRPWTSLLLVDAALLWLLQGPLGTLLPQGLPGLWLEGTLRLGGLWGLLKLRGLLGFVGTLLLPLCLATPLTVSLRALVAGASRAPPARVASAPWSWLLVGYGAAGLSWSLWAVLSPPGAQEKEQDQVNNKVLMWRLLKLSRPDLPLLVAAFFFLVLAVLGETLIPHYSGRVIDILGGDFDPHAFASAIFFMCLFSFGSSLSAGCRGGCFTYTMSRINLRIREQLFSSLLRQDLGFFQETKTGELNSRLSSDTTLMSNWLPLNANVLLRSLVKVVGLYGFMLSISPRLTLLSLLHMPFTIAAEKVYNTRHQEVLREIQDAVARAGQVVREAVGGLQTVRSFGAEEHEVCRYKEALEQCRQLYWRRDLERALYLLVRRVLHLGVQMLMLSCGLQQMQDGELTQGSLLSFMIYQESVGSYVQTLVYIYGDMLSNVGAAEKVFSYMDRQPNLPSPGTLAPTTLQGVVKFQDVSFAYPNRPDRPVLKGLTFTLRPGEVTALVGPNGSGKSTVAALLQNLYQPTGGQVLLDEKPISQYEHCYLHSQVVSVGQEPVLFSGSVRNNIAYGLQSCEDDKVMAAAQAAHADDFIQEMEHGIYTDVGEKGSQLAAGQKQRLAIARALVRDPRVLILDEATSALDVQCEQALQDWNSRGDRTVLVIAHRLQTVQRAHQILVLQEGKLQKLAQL
Chain of TAP (O15533 21-448 partner): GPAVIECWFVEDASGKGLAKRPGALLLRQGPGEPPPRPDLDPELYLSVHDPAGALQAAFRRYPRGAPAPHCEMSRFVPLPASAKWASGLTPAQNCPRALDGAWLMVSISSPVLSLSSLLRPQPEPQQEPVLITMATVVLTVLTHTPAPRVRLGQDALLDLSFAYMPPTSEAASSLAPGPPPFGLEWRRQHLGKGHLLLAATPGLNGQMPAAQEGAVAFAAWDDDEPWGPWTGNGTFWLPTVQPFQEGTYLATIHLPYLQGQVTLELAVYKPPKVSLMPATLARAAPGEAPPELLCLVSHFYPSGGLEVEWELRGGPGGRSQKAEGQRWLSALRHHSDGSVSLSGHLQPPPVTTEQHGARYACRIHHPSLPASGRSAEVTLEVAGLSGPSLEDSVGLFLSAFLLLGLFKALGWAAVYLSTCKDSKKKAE
Chain of TAP (P30101 25-505 partner): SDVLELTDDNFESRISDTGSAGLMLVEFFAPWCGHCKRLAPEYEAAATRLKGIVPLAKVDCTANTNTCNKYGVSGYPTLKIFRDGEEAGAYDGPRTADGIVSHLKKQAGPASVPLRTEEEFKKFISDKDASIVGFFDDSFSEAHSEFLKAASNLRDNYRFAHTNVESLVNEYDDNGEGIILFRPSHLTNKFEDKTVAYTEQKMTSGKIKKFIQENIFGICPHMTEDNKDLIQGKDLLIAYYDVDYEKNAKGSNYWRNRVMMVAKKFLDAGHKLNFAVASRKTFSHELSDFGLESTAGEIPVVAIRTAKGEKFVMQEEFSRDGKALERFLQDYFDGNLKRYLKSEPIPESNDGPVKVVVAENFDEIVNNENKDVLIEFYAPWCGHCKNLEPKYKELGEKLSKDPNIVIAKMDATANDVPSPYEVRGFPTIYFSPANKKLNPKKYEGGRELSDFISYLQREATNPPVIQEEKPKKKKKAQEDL

With `CC[C@H](C)[C@H](NC(=O)[C@H](CCC(=O)O)NC(=O)[C@H](CC(=O)O)NC(=O)[C@H](CCCNC(=N)N)NC(=O)[C@@H](NC(=O)[C@H](CC(=O)O)NC(=O)[C@H](C)NC(=O)[C@H](Cc1ccc(O)cc1)NC(=O)[C@@H](NC(=O)[C@H](CCCNC(=N)N)NC(=O)[C@@H]1CCCN1C(=O)CNC(=O)[C@@H](NC(=O)[C@H](CCCNC(=N)N)NC(=O)[C@H](CCSC)NC(=O)[C@H](CC(N)=O)NC(=O)[C@H](CC(=O)O)NC(=O)[C@H](CC(C)C)NC(=O)[C@H](Cc1ccccc1)NC(=O)[C@@H](NC(=O)[C@H](CC(=O)O)NC(=O)[C@H](C)NC(=O)[C@H](CCSC)NC(=O)[C@H](CCC(=O)O)NC(=O)[C@H](CC(C)C)NC(=O)[C@H](C)NC(=O)[C@H](Cc1c[nH]c2ccccc12)NC(=O)[C@@H](N)CO)[C@@H](C)O)C(C)C)[C@@H](C)O)C(C)C)C(=O)N[C@@H](CC(N)=O)C(=O)N[C@@H](CCCCN)C(=O)N[C@@H](CCCNC(=N)N)C(=O)NCC(=O)N[C@@H](CCCNC(=N)N)C(=O)O` [ICP47_2–34] the “effect of illumination on TAP peptide binding blocked by inhibitor” value [1] was “not affected by illumination; also recorded: did not recover the TAP activity” and the inhibition at 5 µM [2] was > 85%.

Reference: PMC6385481 (Chemical Science, 2018)
